In patent publication US20220118036A1, “USE OF MORCHELLA ACTIVE SUBSTANCE” (GRAPE KING BIO LTD., priority 2020, published 2022):
Where “and” joins values, the source holds several entries; their conditions need not be identical. Equal values may be shown once.

Test system: mouse skeletal muscle cells C2C12
Assay: Dexamethasone-induced muscle atrophy of differentiated C2C12 myotubes (myotube width, H&E staining)
Format: cell-based
Details: 1 μM Dexamethasone alone, 24 hours, mean±SD, n = 60, control 30.39 ± 4.52
Experimental: Currently, there have been experiments using Dexamethasone to induce muscle atrophy in mouse skeletal muscle cell C2C12. […] This paper uses a synthetic glucocorticoid-Dexamethasone to induce differentiated C2C12 atrophy as a model of muscle atrophy for sarcopenia study, in which the severity of muscle atrophy is measured according to the observation of morphology and diameter of the myotubes. According to such a method, in this experiment, the differentiated mouse skeletal muscle cell C2C12 is stained with H&E (hematoxylin and eosin) to assess the effect of the Morchella mycelium active substance in muscle atrophy. The experimental method is as follows:
(1) After the mouse skeletal muscle cells C2C12 was collected and the cell suspension concentration was adjusted, the cells were plated in a 6-well plate at a cell density of 1×10^5-2×10^5 with the cell growth medium (DMEM, 10% Fetal Bovine Serum).
(2) The 6-well plate of (1) was placed in a 5% CO2 incubator at 37° C. for two days and then observed under a microscope. […]
(5) Each test was repeated 3 times, and the numerical value was expressed as mean±SD (standard deviation). The statistical method used paired t-test to analyze the percentages of each item, and the significant difference was determined when the p-value was less than 0.05.

## C[C@@H]1C[C@H]2[C@@H]3CCC4=CC(=O)C=C[C@]4(C)[C@@]3(F)[C@@H](O)C[C@]2(C)[C@@]1(O)C(=O)CO [Dexamethasone]
  myotube diameter: 19.98 μm and 19.98 ± 6.42 μm
